Measurements reported in the Kinase Knowledgebase extract (Sharma et al. 2016).

Tests used:
EGFR (human) = EGFR (human) (UniProt P00533); conditions: concentration not given here
CDK2 (human) = CDK2 (human) (UniProt P24941); assay: Enzyme Assay; conditions: concentration not given here

Chain of EGFR (human) (P00533 whole entry, looked up): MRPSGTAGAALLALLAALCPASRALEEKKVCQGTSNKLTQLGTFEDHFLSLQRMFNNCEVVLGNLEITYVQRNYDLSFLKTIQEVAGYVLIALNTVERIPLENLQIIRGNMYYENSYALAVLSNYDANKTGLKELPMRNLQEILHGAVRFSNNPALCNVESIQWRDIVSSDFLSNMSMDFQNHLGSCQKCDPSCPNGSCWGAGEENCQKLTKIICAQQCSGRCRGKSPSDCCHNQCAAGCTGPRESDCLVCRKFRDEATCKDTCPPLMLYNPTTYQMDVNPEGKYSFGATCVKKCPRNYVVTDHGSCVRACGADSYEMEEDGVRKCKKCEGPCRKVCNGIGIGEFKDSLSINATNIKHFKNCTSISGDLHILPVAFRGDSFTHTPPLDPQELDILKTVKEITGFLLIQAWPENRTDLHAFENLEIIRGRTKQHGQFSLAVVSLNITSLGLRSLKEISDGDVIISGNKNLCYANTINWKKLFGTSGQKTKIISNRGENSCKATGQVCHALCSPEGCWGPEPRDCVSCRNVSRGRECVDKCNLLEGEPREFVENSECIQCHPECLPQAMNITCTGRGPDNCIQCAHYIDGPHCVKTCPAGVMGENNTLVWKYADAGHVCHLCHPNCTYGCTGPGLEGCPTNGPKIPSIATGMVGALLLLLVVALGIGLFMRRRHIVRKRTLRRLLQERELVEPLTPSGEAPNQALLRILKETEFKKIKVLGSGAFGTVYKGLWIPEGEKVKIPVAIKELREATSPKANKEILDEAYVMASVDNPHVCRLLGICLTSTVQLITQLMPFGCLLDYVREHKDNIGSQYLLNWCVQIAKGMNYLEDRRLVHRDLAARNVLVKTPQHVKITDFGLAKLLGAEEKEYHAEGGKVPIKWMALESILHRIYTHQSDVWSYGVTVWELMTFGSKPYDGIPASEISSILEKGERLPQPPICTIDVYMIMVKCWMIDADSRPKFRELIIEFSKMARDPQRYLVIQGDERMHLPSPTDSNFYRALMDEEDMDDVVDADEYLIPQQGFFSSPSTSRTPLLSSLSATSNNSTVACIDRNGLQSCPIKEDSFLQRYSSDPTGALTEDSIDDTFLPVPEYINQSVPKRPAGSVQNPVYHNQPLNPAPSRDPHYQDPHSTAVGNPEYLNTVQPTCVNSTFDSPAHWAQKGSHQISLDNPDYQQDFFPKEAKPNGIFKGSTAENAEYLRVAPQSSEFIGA

COc1cc(C2=C(c3c(C)[nH]c4ccccc34)C(=O)NC2=O)cc(OC)c1OC
inhibition (EGFR (human)): 5%

COc1cc2c3c(c4c5ccccc5n(C)c4c2c(OC)c1OC)C(=O)NC3=O
inhibition (CDK2 (human)): 58%

COc1ccc2[nH]c3c4c(OC)c(OC)c(OC)cc4c4c(c3c2c1)C(=O)NC4=O
inhibition (EGFR (human)): 3%

COc1ccc(C2=C(c3c[nH]c4ccccc34)C(=O)NC2=O)cc1OC
inhibition (EGFR (human)): 27%
inhibition (CDK2 (human)): 7%
